Data set [1] concerns H37Rv-Mtb. Nature of the data set: MIC against replicating H37Rv-Mtb in liquid media. Type of data set: cell-based, Mycobacterium tuberculosis. As to conditions: for MIC: replicating, 5 days, OD590.
The subject of data set [2] is VERO cell line. Kind of data set: Eukaryotic cytotoxicity (CellTiter-Glo). Type of data set: cell-based, African green monkey. The note with it: Chlorocebus sabaeus, 48 h, 2-day incubation, read-out: VERO Toxicity IC50. The procedure:
Cytotoxicity was tested against the African green monkey adult kidney cell line (VERO, ATCC CRL-1586) as described. Compounds were tested as 10-point, 3-fold serial dilutions in DMSO (final assay concentration of 1% DMSO) and viability was measured using CellTiter-Glo (Promega). Inhibition curves were fitted using the Levenberg–Marquardt algorithm. IC50 was defined as the concentration required to reduce cell viability by 50% after 2-day incubation.
(Cellular ATP, detected with luciferase, serves as a proxy for viable cell number.)

The nature of data set [3]: physchem. As to conditions: pH 6.8, aqueous buffer, kinetic from dmso stock.
Method: The relative solubility of compounds was determined in microbiological medium using turbidity as a measure [27]. A serial dilution of compounds was prepared in DMSO and then transferred to microbiological medium at pH 6.8.
The conditions of data set [4]: cited from earlier work.
The test system of data set [5] is M. tuberculosis strain H37Rv-LUX. Kind of data set: microbe, parasite or virus in culture. Type of data set: cell-based. As to conditions: Mycobacterium tuberculosis, read-out: LORA MIC.
Data set [6] has as its system M. tuberculosis GC1237 (Mtb-GFP) in Raw 264.7 macrophages. Kind of data set: Intracellular mycobacterial replication assay in macrophages. Type of data set: cell-based. The note with it: Mycobacterium tuberculosis, 120 h, 5 days, read-out: MIC, intracellular M. tuberculosis growth in macrophages.
The test system is the same in data set [7]. The note with it: cited from earlier work.
For data set [8] the following is noted: in vivo; cited from earlier work.
Data set [9] has as its system M. tuberculosis Erdman. Nature of the data set: Chronic Balb/c model of TB infection. Type of data set: in vivo, Balb/c mice. As to conditions: 25 mg/kg.
For data set [10], the system named is murine Raw 264.7 macrophages. As to conditions: mouse.
For data set [11] the following is noted: cited from earlier work. This is another data set of the same source.
For data set [12], the system named is replicating Mtb. As to conditions: against three family strains; cited from earlier work.
The mark [13] stands for this setting: Mycobacterium tuberculosis, H37RV, 120 h.

The values that follow come from article PMC6944458, “Intracellular and in vivo evaluation of imidazo[2,1-b]thiazole-5-carboxamide anti-tuberculosis compounds” (PLoS ONE, 2020).

In brackets after ≈: the same amount, converted by molar mass. Several values for one entry are separate records, joined by “and”; a condition that tells them apart may be missing. Equal entries are not always repeated. Where two headings read alike, the source gives them in different places.

On to `Cc1cn2c(C(=O)NCc3ccc(Oc4cccc(C(F)(F)F)c4)nc3)c(C)nc2s1` [ND-12025, 2,6-Dimethyl-N-((6-(3-(trifluoromethyl)phenoxy)yridine-3-yl)methyl)imidazo[2,1-b]thiazole-5-carboxamide], for which the MIC in [1] (setting [13]) turned out to be 0.33 µM (≈ 0.147 µg/mL). Besides, in data set [2], the IC50 was over 50 µM. The compound further showed a solubility in data set [3] of 100 µM (≈ 44.6 µg/mL).

For the compound `O=C(/C=C/c1cccs1)N1CCN(Cc2ccc3c(c2)OCO3)CC1` [AX-35], the MIC in [4] is 0.14 μM and 0.05 μg/mL.

Turning to `CCc1nc2ccc(Cl)cn2c1C(=O)NCc1ccc(N2CCC(c3ccc(OC(F)(F)F)cc3)CC2)cc1` [Q203], the MIC in data set [1] (setting [13]) came to 0.005 µM (≈ 0.00279 µg/mL); in data set [5], 1.3 µM (≈ 0.724 µg/mL); in data set [6], 0.0078 µM (≈ 0.00434 µg/mL). The IC50 in data set [2] was over 50 µM. Besides, the “MIC, intracellular, previous reports” value in [7] was under 0.098 µM. The compound further displayed a solubility in data set [3] of 100 µM (≈ 55.7 µg/mL). For the same compound, the “AUC 0–24” value in data set [8] is 44,100 ng·hr/mL.

Take `NNC(=O)c1ccncc1` [INH, Isoniazid]: in data set [9] (4 weeks), the “Log reduction vs Control (Lung)” value turned out to be 1.73 log10 CFU and the “Log reduction vs Control (Spleen)” value came out at 2.87 log10 CFU. Besides, in data set [9] (ERDMAN, 672 h), the “Lung Log10 CFU ±SEM” value was 4.06 ± 0.11 Log10 CFU and the “Spleen Log10 CFU ±SEM” value was 2.13 ± 0.12 Log10 CFU.

Regarding `C[C@H]1COC2(CCN(c3nc(=O)c4cc(C(F)(F)F)cc([N+](=O)[O-])c4s3)CC2)O1` [BTZ043, reference compound], the MIC was determined as 0.002 µM (≈ 0.000863 µg/mL) in data set [1] (setting [13]) and 0.0078 µM (≈ 0.00336 µg/mL) in data set [6]. The IC50 in data set [2] was over 50 µM. In addition, the “MIC, intracellular, previous reports” value in data set [7] is under 0.098 µM.

On to `Cc1cn2c(C(=O)NCc3ccc4c(c3)CCO4)c(C)nc2s1` [ND-11459, N-((2,3-Dihydrobenzofuran-5-yl)methyl)-2,6-dimethylimidazo[2,1-b]thiazole-5-carboxamide], for which the values for the MIC in data set [5] and in data set [6] were 12.4 µM (≈ 4.06 µg/mL) and 1.25 to 2.5 µM (≈ 0.409 to 0.819 µg/mL), respectively. Moreover, in data set [2], the IC50 is over 50 µM. The “Macrophage toxicity concentration relative to MIC” value in data set [10] is 4 and 8-fold higher than their MIC. In [3], the solubility was at least 200 µM.

On to `Cc1cn2c(C(=O)NCc3ccc(Oc4cccc(C(F)(F)F)c4)cc3)c(C)nc2s1` [ND-11564, 2,6-Dimethyl-N-(4-(3-(trifluoromethyl)phenoxy)benzyl)imidazo[2,1-b]thiazole-5-carboxamide], for which the MIC in [1] (setting [13]) was 0.16 µM (≈ 0.0713 µg/mL); in data set [1] it was 0.16 µM (≈ 0.0713 µg/mL); in data set [5], 9.68 µM (≈ 4.31 µg/mL); in data set [6] it was 0.25 µM (≈ 0.111 µg/mL). The IC50 in data set [2] is over 50 µM. For the same compound, in [10], the “Macrophage toxicity concentration relative to MIC” value is 4 and 8-fold higher than their MIC. The same compound registered a solubility in data set [3] of 100 µM (≈ 44.5 µg/mL).

Regarding `Cc1cn2c(C(=O)NCc3ccc(N4CCS(=O)(=O)CC4)c(F)c3)c(C)nc2s1` [ND-11903, N-(4-(1,1-Dioxidothiomorpholino)-3-fluorobenzyl)-2,6-dimethylimidazo[2,1-b]thiazole-5-carboxamide], the “Fold less active than the most potent lipophilic compounds (ND-11543, ND-11564)” value in [1] (MIC H37Rv-Mtb comparison) is recorded as over 100 fold. Besides, the MIC in [1] (setting [13]) came to 3.7 µM (≈ 1.62 µg/mL); in [5] it was 200 µM (≈ 87.3 µg/mL). In addition, in [2], the IC50 is over 50 µM. The same compound had a solubility in data set [3] of over 200 µM.

On to `Cc1cn2c(C(=O)NCc3ccc(N4CCS(=O)(=O)CC4)cc3)c(C)nc2s1` [ND-12015, N-(4-(1,1-Dioxidothiomorpholino)benzyl)-2,6-dimethylimidazo[2,1-b]thiazole-5-carboxamide], for which the “Fold less active than the most potent lipophilic compounds (ND-11543, ND-11564)” value in data set [1] (MIC H37Rv-Mtb comparison) is over 100 fold. The compound further came in with an MIC in data set [1] (setting [13]) of 13 µM (≈ 5.44 µg/mL). Moreover, the IC50 in data set [2] was over 50 µM. In data set [3], this compound came in with a solubility of 200 µM (≈ 83.7 µg/mL).

Turning to `CCc1nc2sc(C)cn2c1C(=O)NCc1ccc2c(c1)CCO2` [ND-11503, N-((2,3-Dihydrobenzofuran-5-yl)methyl)-6-ethyl-2-methylimidazo[2,1-b]thiazole-5-carboxamide], the MIC in data set [1] (setting [13]) was 0.25 to 0.54 µM (≈ 0.0854 to 0.184 µg/mL); in data set [1], 0.25 µM (≈ 0.0854 µg/mL); in data set [5], 2.7 µM (≈ 0.922 µg/mL); in data set [6] it was 1.25 to 2.5 µM (≈ 0.427 to 0.854 µg/mL). For the same compound, in [2], the IC50 is over 50 µM. This compound showed a solubility in [3] of at least 200 µM.

Consider `NC(=O)c1sc(N2CCOCC2)cc1OCCc1ccc(OC(F)(F)F)cc1` [Compound 6], for which the MIC in [11] is 0.2 µM (≈ 0.0833 µg/mL).

`CCc1nc2sc(C)cn2c1C(=O)NCc1ccc(Oc2cccc(C(F)(F)F)c2)nc1` [ND-12024, 6-Ethyl-2-methyl-N-((6-(3-(trifluoromethyl)phenoxy)yridine-3-yl)methyl)imidazo[2,1-b]thiazole-5-carboxamide] showed an MIC in data set [1] (setting [13]) of 0.21 µM (≈ 0.0967 µg/mL). The IC50 in [2] was over 50 µM. This compound also registered a solubility in data set [3] of 50 µM (≈ 23 µg/mL).

For `Cc1c(OCC(F)(F)F)ccnc1CSc1nc2ccccc2[nH]1` [LPZS], the IC90 in data set [12] was 1.1 to 1.7 µM.

In the case of `Cc1cn2c(C(=O)Nc3ccc(Oc4cccc(C(F)(F)F)c4)cc3)c(C)nc2s1` [ND-11566, 2,6-Dimethyl-N-(4-(3-(trifluoromethyl)phenoxy)phenyl)imidazo[2,1-b]thiazole-5-carboxamide], the “Fold difference in potency, anilide vs benzylic amide ND-11564” value in data set [1] (MIC H37Rv-Mtb comparison) is listed as over 50 fold. For the same compound, the MIC in data set [1] (setting [13]) was 9.1 µM (≈ 3.93 µg/mL); in [1] it was 9.10 µM (≈ 3.93 µg/mL); in data set [5], over 100 µM. Also, the IC50 in data set [2] was over 50 µM. This compound had a solubility in data set [3] of 50 µM (≈ 21.6 µg/mL).

One may read the IC50 as the concentration that gives 50% inhibition. By solubility is commonly meant how much of the substance goes into solution per volume. Read a high solubility as a readily soluble substance. As a reminder, the IC90 is the concentration needed for an effect of 90%.
